Our source for the Ki values is BindingDB's records for doi:10.1016/j.bioorg.2015.01.005 (Kurukshetra University, 2015).

One experiment has as its target Cathepsin B (Capra hircus, UniProt H9B8T9). Briefly: Cathepsin Ezyme Assay. As to conditions: pH 6.
The target in another experiment is T1, Cathepsin H (Capra hircus, UniProt A0A060INS8).
T1 sequence (A0A060INS8 whole entry): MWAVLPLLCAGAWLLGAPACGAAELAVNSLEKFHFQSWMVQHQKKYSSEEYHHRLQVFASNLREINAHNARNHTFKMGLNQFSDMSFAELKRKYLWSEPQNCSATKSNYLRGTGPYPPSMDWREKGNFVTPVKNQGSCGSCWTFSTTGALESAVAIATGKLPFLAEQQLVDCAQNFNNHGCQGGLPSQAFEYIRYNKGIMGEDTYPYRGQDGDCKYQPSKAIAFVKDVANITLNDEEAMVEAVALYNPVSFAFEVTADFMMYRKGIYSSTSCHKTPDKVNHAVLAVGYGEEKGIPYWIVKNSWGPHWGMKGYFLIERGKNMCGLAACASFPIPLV
Briefly: Cathepsin Ezyme Assay. As to conditions: pH 6.

Experimental for Cathepsin B: (§1) Cathepsin B and H were first activated in the presence of thiol activators at pH 6.0 and pH 7.0, respectively. Then, 15 µL of the enzyme solution was mixed with 940 µL of 0.1 M sodium phosphate buffer containing 1 mM EDTA separately, for 10 min at 37 °C. […] After 30 min, 25 µL of 100 mM substance stock solution was added to start the reaction.
Experimental for Cathepsin H: as §1

Usually Ki stands for the dissociation constant of the complex between target and ligand, obtained from inhibition or displacement. Lower therefore signals a stronger hold on the target. As for `O=C1NC(c2ccc([N+](=O)[O-])cc2)Nc2ccccc21` (centres undefined) [2-(4-Nitrophenyl)-2,3-dihydroquinazolin-4(1H)-one (1b)], the Ki on Cathepsin B came to 1.57 µM; on Cathepsin H, 10.4 µM.
For `CN(C)c1ccc(C2NC(=O)c3ccccc3N2)cc1` (centres undefined) [2-(4-(Dimethylamino)phenyl)-2,3-dihydroquinazolin-4(1H)-one (1h)] the same measures were 10.6 µM and 18.6 µM.
As for `O=C1NC(c2ccc(F)cc2)Nc2ccccc21` (centres undefined) [2-(4-Fluorophenyl)-2,3-dihydroquinazolin-4(1H)-one (1f)], the figures for the Ki at Cathepsin B and at Cathepsin H were 0.0064 µM and 8.18 µM, respectively.
`O=C1NC(c2ccc(Cl)cc2)Nc2ccccc21` (centres undefined) [2-(4-Chlorophenyl)-2,3-dihydroquinazolin-4(1H)-one (1e)]: the Ki is 0.041 µM on Cathepsin B and 23.3 µM on Cathepsin H.
In the same order, the values of `Cc1ccc(C2NC(=O)c3ccccc3N2)cc1` (centres undefined) [2-(4-Methylphenyl)-2,3-dihydroquinazolin-4(1H)-one (1c)] are 52.6 µM and 2.5 µM.
Regarding `COc1ccc(C2NC(=O)c3ccccc3N2)cc1` (centres undefined) [2-(4-Methoxyphenyl)-2,3-dihydroquinazolin-4(1H)-one (1d)], the Ki at Cathepsin B is 2.81 µM; at Cathepsin H, 56.8 µM.
With `O=C1NC(c2ccc(Br)cc2)Nc2ccccc21` (centres undefined), the Ki was determined as 32.5 µM at Cathepsin B and 52.6 µM on Cathepsin H.
